Measured values published in PubChem BioAssay (NCI).
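Interpolation was linear, between the two tested concentrations surrounding the appropriate level; five concentrations were tested over 48 hours in 96-well plates. GI50 is the concentration that inhibits growth by half. Definition used: TGI = concentration required for complete inhibition of growth.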

Key:
Test in all cases: NCI tumour cell line growth inhibition, 48 h
KM12 colon = system: KM12 colon
HT29 colon = system: HT29 colon
SNB-75 CNS = system: SNB-75 CNS
MCF7 breast = system: MCF7 breast
OVCAR-8 ovarian = system: OVCAR-8 ovarian
786-0 renal = system: 786-0 renal
DU-145 prostate = system: DU-145 prostate
HCC-2998 colon = system: HCC-2998 colon
A549 NSCLC = system: A549 NSCLC
RPMI-8226 leukemia = system: RPMI-8226 leukemia

| Compound | GI50 (KM12 colon) | TGI (KM12 colon) | GI50 (HT29 colon) | TGI (HT29 colon) | GI50 (SNB-75 CNS) | TGI (SNB-75 CNS) | GI50 (MCF7 breast) | TGI (MCF7 breast) | GI50 (OVCAR-8 ovarian) | TGI (OVCAR-8 ovarian) | GI50 (786-0 renal) | TGI (786-0 renal) | GI50 (DU-145 prostate) | TGI (DU-145 prostate) | GI50 (HCC-2998 colon) | TGI (HCC-2998 colon) | GI50 (A549 NSCLC) | TGI (A549 NSCLC) | GI50 (RPMI-8226 leukemia) | TGI (RPMI-8226 leukemia) |
| --- | --- | --- | --- | --- | --- | --- | --- | --- | --- | --- | --- | --- | --- | --- | --- | --- | --- | --- | --- | --- |
| C=C(C)C1CCC2(C(=O)O)CCC3(C)C(CCC4C5(C)CCC(OC(=O)NCc6ccccc6)C(C)(C)C5CCC43C)C12 (centres undefined) | 2.23 µM | 12.2 µM | 3.42 µM | 30.4 µM | 98.4 µM | > 100 µM | 4.08 µM | > 100 µM | 7.29 µM | > 100 µM | 3.98 µM | > 100 µM | 4.14 µM | 35.2 µM | 2.8 µM | > 100 µM | 0.961 µM | > 100 µM | 0.757 µM | 6.49 µM |
| C/C(=N\Nc1ccc(Cl)cn1)c1ccccn1 | 0.41 µM | 18.1 µM | < 0.0419 µM | > 59.9 µM | 0.208 µM | > 76.2 µM | 0.0989 µM | > 100 µM | 0.0704 µM | > 100 µM | 0.206 µM | > 33.9 µM | 0.161 µM | > 100 µM | 0.554 µM | 68.2 µM | 0.364 µM | > 100 µM | 0.0572 µM | 12.3 µM |
| COc1ccc(-c2nnc(COc3ccc(NC(=O)Nc4ccc(Cl)c(C(F)(F)F)c4)cc3F)o2)cc1 | 2.31 µM | 11 µM | 3.57 µM | 22.4 µM | 1.48 µM | 8.36 µM | 3.03 µM | 14.3 µM | 3.12 µM | 15.8 µM | 3.24 µM | 12 µM | 3.1 µM | 11.1 µM | 4.86 µM | 53.1 µM | 3.25 µM | 18.7 µM | 1.53 µM | 5 µM |
| Cn1cnc([N+](=O)[O-])c1[Se]c1nc(N)nc2c1ncn2C1OC(CO)C(O)C1O (centres undefined) | – | > 100 µM | – | > 100 µM | – | > 100 µM | – | > 100 µM | – | > 100 µM | – | > 100 µM | – | > 100 µM | – | > 100 µM | – | > 100 µM | – | > 100 µM |
| CCN(CC)CCCC(C)Nc1cnc(C(=O)Nc2cccc3ccc(OC)nc23)cn1 (centres undefined) | 3.17 µM | 11.7 µM | 1.78 µM | 3.51 µM | 10.6 µM | 22.8 µM | 1.67 µM | 3.41 µM | 2.74 µM | 8.41 µM | 1.64 µM | 3.21 µM | 4.24 µM | 15.3 µM | 1.82 µM | 3.46 µM | 2.6 µM | 7.02 µM | 2.45 µM | 6.15 µM |
| COc1ccc(C2SCC(=O)N2NC(=O)Nc2c(C)nc3ccccn23)cc1 (centres undefined) | > 100 µM | > 100 µM | > 100 µM | > 100 µM | 4.76 µM | 19.9 µM | 75.7 µM | > 100 µM | 40.2 µM | > 100 µM | 21.8 µM | 61.6 µM | 44.9 µM | > 100 µM | > 100 µM | > 100 µM | > 100 µM | > 100 µM | > 100 µM | > 100 µM |
| O=c1[nH]c(=O)n(C2OC(CO)C(O)C(O)C2O)cc1F (centres undefined) | – | > 100 µM | – | > 100 µM | – | > 100 µM | – | > 100 µM | – | > 100 µM | – | > 100 µM | – | > 100 µM | – | > 100 µM | – | > 100 µM | – | > 100 µM |
| COc1cc2c3c(n(C)c(=O)c2cc1OC)-c1cc2c(cc1/C3=C\CNCCCN)OCO2 | 0.359 µM | 3.93 µM | 0.376 µM | > 100 µM | 0.923 µM | 9.47 µM | 1.04 µM | 16.5 µM | 0.13 µM | 1.05 µM | 0.367 µM | 6.07 µM | 1.15 µM | 12.8 µM | 0.501 µM | 1.99 µM | 1.43 µM | > 25.1 µM | 0.414 µM | 2.15 µM |
| N#Cc1cccc(NC(=O)c2cc(-c3ccc(F)cc3F)ccc2O)c1 | 3 µM | 10.8 µM | 4.73 µM | 37.3 µM | 2.08 µM | 8.05 µM | 2.15 µM | 9.72 µM | 2.88 µM | > 100 µM | 2.69 µM | 19.4 µM | 3.26 µM | > 100 µM | 2.97 µM | 10.1 µM | 3.09 µM | 28.4 µM | 0.675 µM | 3.16 µM |
| COc1cc2c3c(n(CCNCCCNCCn4c5c(c6cc(OC)c(OC)cc6c4=O)C(=O)c4ccccc4-5)c(=O)c2cc1OC)-c1ccccc1C3=O | 0.0754 µM | 0.59 µM | 0.0448 µM | – | 1.6 µM | 6.81 µM | 0.0878 µM | 2.9 µM | 0.0355 µM | 5.82 µM | 0.186 µM | 6.17 µM | 0.197 µM | 30.8 µM | 0.0685 µM | 0.978 µM | 0.187 µM | 24.2 µM | < 0.018 µM | 0.614 µM |
| C=C[C@H]1C[C@@H]2C[C@@H]3[C@H]4C/C=C\C(=O)NCCCC5NC(=O)C(=C(O)/C=C/[C@@H]4CC(=O)[C@H]3[C@@H]2[C@H]1C)C5=O (some centres undefined) | 1.74 µM | 3.33 µM | 1.88 µM | 3.58 µM | 0.15 µM | 0.289 µM | 1.24 µM | 2.8 µM | 0.193 µM | 0.38 µM | 0.173 µM | 0.329 µM | 0.191 µM | 0.345 µM | 1.41 µM | 2.78 µM | 0.62 µM | 1.91 µM | 1.5 µM | 3.68 µM |
